Measured values from patent publication US6420630B1, “Methods for tissue culturing and transforming elite inbreds of Zea mays L” (Stine Biotechnology, priority 1998, dated 2002).

What was measured:
[1] = tested on: immature embryos of Stine inbred 963; test: Type II callus initiation from cultured immature embryos (embryos responding); assay type: cell-based, Zea mays L.; details: sugar at 10 g/l in combination with 20 g/l sucrose, N6A medium
Method: Plants of the elite corn inbred Stine 963 were grown under controlled conditions, either in a grow room or in a greenhouse. Plants were exposed throughout growth to a 16 h photoperiod with a daytime temperature of around 30° C. and a nighttime temperature of around 25° C. Plants were selfed and after approximately 10 days ears were harvested. At this time the immature embryos were on average between 1.0 and 2.0 mm in length. Usually the ears were then placed at 4° for two days prior to immature embryo excision. The response on standard […] media (Table 1) for inducing Type II callus was variable and appeared to be dependent on the physiological state of the donor plant. The frequency of Type II callus ranged from 0% up to 95%, with an average of around 40%. Immature embryos were excised with a view to using them as targets for Agrobacterium-mediated DNA delivery. For this work a reproducible and high frequency response is required and improvement in these aspects was therefore desirable. The protocol used for introduction of DNA mediated by Agrobacterium was based on that described by Hei and Komari (1997). The co-cultivation medium in this protocol (LSAS-Table 1) contains glucose, intended presumably as a carbon source for Agrobacterium. After close observation of immature embryos on LSAS medium it was thought worthwhile to check for the effects of glucose on culture initiation and subsequent development. 10 g/l of glucose was therefore added to […] medium. This medium was subsequently referred to as […] (Table 1). […] Various other sugars were tested in this regard (see Table 3) and some are capable of supporting an increased rate of Type II callus initiation (especially maltose, lactose, sorbitol and mannitol). None of those tested, however, were as efficient as glucose in stimulating Type II callus formation on […] medium. All sugars were tested at 10 g/l in combination with 20 g/l sucrose.

Agrobacterium = test: Control of Agrobacterium growth on culture media after co-cultivation; assay type: cell-based, Agrobacterium tumefaciens; details: for control of Agrobacterium growth: first 19 day culture period after co-cultivation
Text: Agrobacterium strain LBA 4404 harboring “super binary” vectors as described in U.S. patent Hei and Komari (1997) was used in corn transformation experiments. […] The gus expression cassette contains an intron in the N-terminal region of the gus gene which prevents expression in bacteria, but upon expression in plant cells the intron is spliced out and Gus activity is achieved (Ohta et al., 1990; Ishida et al., 1996). Agrobacterium containing “super binary” vectors were stored in glycerol stocks using acidified glycerol. Glycerol was acidified by adding 15 drops of 1 M HCl to one liter of glycerol (Sigma G-9012). Final glycerol concentration of stocks was 15 to 20% and stocks were frozen at minus 86° C. When glycerol stocks were used as the source for transformation experiments, Agrobacterium was made ready for transformation experiments by removing a few flakes of frozen culture with a sterile loop, streaking it out on YP medium (5 g/l yeast extract, 10 g/l peptone, 5 g/l NaCl, and 15 g/l agar) containing 50 mg/l spectinomycin, and incubating it for one or two days at 28° C. When glycerol stocks were not used as the source, Agrobacterium maintained on YP plus spectinomycin at 4° C. was used to initiate new cultures of Agrobacterium that were grown as described above.
Therefore, a lower level of cefotaxime was tested in the presence of silver nitrate to see if embryo response and subsequent clone recovery could be improved. […] The clones were then transferred to DN62B (Table 4) for growth and further selection prior to regeneration.

O=C[C@H](O)[C@@H](O)[C@H](O[C@@H]1O[C@H](CO)[C@@H](O)[C@H](O)[C@H]1O)[C@H](O)CO [Cellobiose]
Embryo Response [1]: <50%

O=C(CO)[C@@H](O)[C@H](O)[C@H](O)CO [Fructose]
Embryo Response [1]: <50%

O=C[C@H](O)[C@@H](O)[C@@H](O)[C@H](O)CO [Galactose]
Embryo Response [1]: <30%

OC[C@H]1O[C@H](OCC2O[C@@H](O)[C@H](O)[C@@H](O)[C@@H]2O)[C@H](O)[C@@H](O)[C@H]1O (stereo partly shown) [Mellibiose]
Embryo Response [1]: <50%

OC[C@H]1O[C@H](OC[C@H]2O[C@H](O[C@]3(CO)O[C@H](CO)[C@@H](O)[C@@H]3O)[C@H](O)[C@@H](O)[C@@H]2O)[C@H](O)[C@@H](O)[C@H]1O [Raffinose]
Embryo Response [1]: <50%

OC[C@H]1O[C@H](O[C@H]2O[C@H](CO)[C@@H](O)[C@H](O)[C@H]2O)[C@H](O)[C@@H](O)[C@@H]1O [Trehalose]
Embryo Response [1]: <50%

O=C[C@H](O)[C@@H](O)[C@H](O)CO [Xylose]
Embryo Response [1]: <50%

CO/N=C(\C(=O)N[C@@H]1C(=O)N2C(C(=O)O)=C(COC(C)=O)CS[C@H]12)c1csc(N)n1 [cefotaxime]
control of Agrobacterium growth (Agrobacterium; 10 mg/l cefotaxime in presence of silver nitrate): not
control of Agrobacterium growth (Agrobacterium; 50 mg/l cefotaxime in presence of silver nitrate): Adequate control of Agrobacterium growth

O=[N+]([O-])[O-].[Ag+] [silver nitrate]
Agrobacterium growth (Agrobacterium; media containing silver nitrate): inhibited
